The values that follow come from patent publication US20170049739A1, “PROSTACYCLIN COMPOUNDS, COMPOSITIONS AND METHODS OF USE THEREOF” (INSMED INCORPORATED, priority 2013, published 2017).

One data set concerns cough reflex. Description: Cough reflex in guinea pigs exposed to aerosols. Format: in vivo, guinea pig. As for the experimental part: has the following components: Aerosols were generated with an Ultra-Neb Pro nebulizer (nebulizer output 0.36 mL/min.) that was mixed with inspired air delivered at a rate of 2 L/min. […] Coughs were detected by visual observations, plethysmograph recordings and cough sounds.

For data set [1] the following is noted: dog, in vivo. On the procedure: Twelve beagle dogs of either sex were randomly assigned to different inhaled doses of treprostinil in PBS or the compound of Formula (A) wherein R2=
Formulations were nebulized with an Aeroneb nebulizer (MMAD: 2.5-4 μm) delivered into a 500 ml expansion chamber. Formulations were nebulized for 2 min at ventilator settings of 90 ml/breath, 15 breaths/min (delivered volume=2.7 L) and collected on a filter. Drug amount (μg) on the filter was measured by HPLC to calculate the concentration of drug delivered through the ventilator circuit (μg/L).
Dosimetry was performed in propofol-anesthetized dogs in which nebulized drugs were introduced into a mixing chamber interposed on the inspiratory limb of a canine respirator. Technical trials were performed before each experiment to measure the concentration of drug (μg/L) delivered for each breath. The inhaled drug dose (μg/kg) was calculated using the formula: Inhaled Drug Dose (μg/kg)=Drug Cone. (μg/L)×Minute Ventilation (L/min.)×Time (min.)/Body Weight (kg).
Dosimetry was performed in propofol-anesthetized, artificially ventilated dogs in which nebulized drugs were introduced into a mixing chamber interposed on the inspiratory limb of the respirator. Technical trials were performed before each experiment measuring the concentration of drug (μg/L) per breath, minute ventilation and time required to achieve a targeted pulmonary dose. […] Clinical signs (cough, rapid shallow breathing, emesis and pale gums) were also monitored.

Data set [2] in a line: Treprostinil pharmacokinetics in anaesthetised, ventilated rats after nebulized dosing. The data set is classed as in vivo, rat. The following applies: nebulized solution. As for the experimental part: Male Sprague Dawley rats wrere anaesthetised and prepared with endotracheal tube for ventilation. The right femoral vein was cannulated to facilitate blood collections. Terminal lung samples were taken for analysis only 6 hours after dosing. […] Systemic blood pressure (mSAP), heart rate (HR), and arterial oxygen saturation (SaO2). Physiologic parameters were measured during normoxia (fraction of inspired oxygen [FrO2]=0.21, SaO2 ≈90%) and for 2 to 3 hours during hypoxia (FrO2=0.10, SaO2≈50%).

Another data set deals with T1, EP2 prostanoid receptor (Homo sapiens, UniProt P43116).
T1 construct: host or cells: CHO-K1 cells, transiently co-transfected with pGloSensor-22F cAMP plasmid and pGEM-3Zf(+)
Description: GloSensor cAMP assay in CHO-K1 cells co-transfected with the EP2 receptor. The data set is classed as cell-based. As to conditions: for change of potency with incubation time / release profile: dose response curves at 0.5 to 8 hr incubation. The text has this:
cAMP is a second messenger involved in signal transduction of G-protein coupled receptors (GPCRs) acting through Ga-s and Ga-i proteins. Because the treprostinil receptor is a GPCR, the assay provides an indication of whether the respective prostacyclin compound (or metabolite thereof) binds its receptor and activates the GPCR cell signaling cascade. The GloSensorTM assay harnesses a genetically modified form of firefly luciferase into which a cAMP-binding protein moiety has been inserted. Upon binding of cAMP, a conformational change is induced leading to increased light output. The EP2 prostanoid receptor was co-transfected with the GloSensorTM plasmid (Promega) into CHG-K1 cells as follows. CHO-K1 cells were harvested when the monoloayer was at 50-90% confluence. First, cells were washed with 5 mL PBS. […] The media was aspirated, and the cell pellet was resuspended in 10 mL of growth media. Cell number was determined using a hemacytometer. Each well of a culture treated 96 […] bottom plate (Costar, Cat #: 3917) was seeded with 1×10^4 cells per 100 μL antibiotic-free growth media. […] For small scale transfections of up to 20 wells, the pGLoSensor-22F cAMP plasmid (Promega, Cat #: E2301) (2 μg): (EP2) (10 ng) (Origene, Cat #: SC126558) : pGEM-3Zf(+) (10 ng) (Promega, Cat #: P2271) ratio was diluted to a final concentration of 12.6 ng/μL (total plasmid) in Opti-MEM I reduced-serum medium (Life Technologies, Cat #: 1985062). Next, 6 μL of FuGENE HD transfection reagent (Promega, Cat #: E2311) was added to 160 μL of diluted plasmid and mixed carefully by gentle pipetting. The complex was incubated at room temperature for 0 to 10 minutes, and then 8 μL of the complex was added per well of a 96 well white assay plate (Costar, Cat #: 3917) and gently mixed without disturbing the cell monolayer. […] Following incubation, cells were treated and analyzed. For larger scale transfections, the aforementioned steps were scaled up accordingly, and cells were frozen following the last incubation. In order to prepare frozen transfected CHO-K1 cells, the media was aspirated from culture flasks and cells were rinsed with 5 mL PBS. […] Cell number was determined using a hemacytometer. The media was aspirated, and the cell pellet was resuspended in freezing media (Millipore, cat #: S-002-5F) at 2.5×10^6 cells/vial. Transfected cells were incubated overnight at -80° C. before transfer to liquid nitrogen for long term storage. […] In preparation for cAMP measurement, the cells were equilibrated with the GloSensor cAMP reagent prior to treatment. For equilibration, the medium was carefully removed from the individual well. Next, 100 μL of equilibration medium (6% v/v of Glosensor Reagent stock solution (Promega, Cat #: E291), 10% FBS (Hyclone, Cat #: SH30071.03) and 88% CO2 independent medium (Life Technologies, Cat #: 18045088)) was added per well of the 96-well plate, and added to the side of each well. The plate was then incubated for 2 hours at room temperature. A first pre-read measurement was taken using a microplate reader (MicroLumat Plus). Plates were incubated for an additional 10 minutes at room temperature, followed by a second pre-read measurement. […] Following treatment, each plate was read every 5 minutes for the duration of the assay using a microplate reader (MicroLumat Plus). In order to determine the fold change in cAMP relative to the control, the transfection efficiency was first determined by dividing the second pre-read measurement by the average of the corresponding pre-read measurements. Next, the normalized relative light units (RLUs) of the samples were determined by dividing the plate read measurement by the transfection efficiency. The fold change in cAMP relative to the control was then determined by dividing the normalized RLU of the samples by the normalized RLU of the control. […] Results from the three highest concentrations are provided at FIG. 3A (10 μM), FIG. 3B (1 μM) and FIG. 3C (0.1 μM). […]
On the technique in general: cAMP levels reflect the balance of adenylyl cyclase and phosphodiesterase activity.

Data set [3] in a line: Tolerability and pharmacokinetics in rats after 14 consecutive days of inhaled C16-TR (T748). The data set is classed as in vivo, rat. As to conditions: T748, 0.6-18 μg/kg inhaled. As for the experimental part: Body weights were recorded daily and organ weights (lungs, heart, liver) were measured 24 hr, after the last drug dose.
For data set [4] the following is noted: rat, in vivo. On the procedure: Nebulized treprostinil (TRE) solution and treprostinil alkyl ester formulations were administered (at 15 nmol/kg, or […] TRE equivalent) to anaesthetised-ventilated rats (6-hour studies) or to conscious rats by nose-only inhalation (24-hour studies). Blood and lung samples were collected at specified time points. TRE and treprostinil alkyl ester concentrations in blood plasma and lung tissue were measured by HPLC/MS/MS analysis.
Male Sprague Dawley rats were placed in restraining tubes and exposed to nebulised drugs via the Jaeger-NYU Nose-Only Directed-Flow Inhalation Exposure System (CH Technologies, Westwood, N.J.) (FIG. 31), Test articles (6 mL at specific concentration) were nebulised using the Aeroneb nebuliser to deliver a predetermined estimated pulmonary dose. Blood and lung tissue samples were taken at selected times after nebulization of the drags over a 24-hour period.

Data set [5] is described as follows: Particle size characterization of treprostinil compositions (QELS). Format: physicochemical. As to conditions: particles of compositions comprising the alkyl ester (FIG. 2).
Description: All particle size measurements were performed using a Wyatt Technology Mobius™ Zeta Potential/ Particle Sizing Instrument in Quasi-elastic light scattering (QELS) mode. Composition aiiquots were diluted 10-fold in pre-filtered (0.02 μm pore filter) ultrapure of deionized H2O. Light scattering data was collected and converted into particle size and size distribution using Dynamics® v. […] Reported average particle size diameter is based on the cumulants model, which mathematically fits particle diffusion constants (determined by the raw scattering intensities of particles in a suspension) to obtain the particle size mean and a distribution of particle sizes around the mean diameter.
Particle uniformity was determined using the software-calculated polydispersity (% PD). Polydispersity is defined as the standard deviation of the particle size distribution from the mean particle size value. % PD normalizes the polydispersity to the mean diameter by dividing by the mean size and multiplylng by 100. These parameters indicate whether a particle suspension has one or more size populations of particles (monomodal versus multimodal). […]
Dynamics® polydispersity parameter represents a monodisperse population of particles if % PD≦15. A calculated % PD≧57% represents a polydisperse population of particles.
The next data set in a line: physchem. As to conditions: organic solvent or mixture, thermodynamic from solid. As for the experimental part: Selected treprostinil derivatives were evaluated for the use in a metered dose inhaler (MDI).
5 mg of each treprostinil compound was added in a glass bottle. Specific amount of ethanol was added by weight. An MDI valve was crimped to each bottle, and HFA propellant added through the valve to the total volume of 5 mL. Compounds were allowed to dissolve for 24 hours at room temperature. The formulations were assessed visually for solubility. The goal was to estimate the minimum ethanol concentration required to solubilize each compound in propellant.
Soluble samples presented as clear and colorless solutions. […] Non-soluble samples had white precipitate or crystals formed. Ethanol was added as a solubility aid.

Data set [6] can be described thus: Treprostinil alkyl ester conversion to treprostinil in rat lung tissue homogenate. The data set is classed as in vitro ADME. As to conditions: 37° C., 200 nM, 10 mg/mL of protein, 4 hours. On the procedure:
Treprostinil alkyl ester conversion to treprostinil was also measured in the presence of rat, dog and monkey lung tissue homogenate at 37° C. Mere, data were calculated based on fit of exponential increase to the maximum (experiments performed in duplicate). The results of this study are provided below in Table 2A and FIG. 37. […] Both FIG. 37 experiments (left and right graphs) were performed in duplicate and the lines represent nonlinear exponential regression assuming 1 phase decay.

Where [7] appears, read: nebulized concentration of 30 μg/mL.

Entries after “also recorded” stand apart in the source; their conditions may differ.

T1 sequence (P43116 whole entry): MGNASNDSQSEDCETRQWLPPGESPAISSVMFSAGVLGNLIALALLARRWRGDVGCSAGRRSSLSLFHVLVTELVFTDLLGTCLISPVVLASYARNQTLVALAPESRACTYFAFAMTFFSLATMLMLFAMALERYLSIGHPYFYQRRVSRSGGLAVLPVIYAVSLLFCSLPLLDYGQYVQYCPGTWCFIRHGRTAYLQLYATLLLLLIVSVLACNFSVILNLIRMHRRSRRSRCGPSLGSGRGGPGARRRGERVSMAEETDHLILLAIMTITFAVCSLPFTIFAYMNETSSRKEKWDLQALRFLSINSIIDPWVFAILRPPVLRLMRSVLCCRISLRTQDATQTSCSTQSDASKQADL

`CCCCC[C@H](O)CC[C@@H]1[C@H]2Cc3cccc(OCC(=O)O)c3C[C@H]2C[C@H]1O` [Treprostinil, (1R,2R,3aS,9aS)-[[2,3,3a,4,9,9a-hexahydro-2-hydroxy-1-[(3S)-3-hydroxyoctyl]-1H-benz[f]inden-5-yl]oxy]acetic acid]: the “exposure concentration consistently evoking cough” value with cough reflex (guinea pigs, aerosol 10 min.) was at least 30 µg/mL. In the data set with cough reflex (setting [7]), the cough bouts is on record as 1-4, the “guinea pigs with cough” value is recorded as 7 of 7 and the “total number of coughs” value is given as 36+9 coughs. In [1] (both, beagle), the “time by which plasma treprostinil was below the level of quantification” value is at most 4 h and the “treprostinil plasma Cmax relative to similar inhaled doses of T623” value was 15-20 fold. Besides, in [1], the “period over which plasma levels of treprostinil were sustained” value was “disappeared within a few hours”. In [2], the “time by which measurable levels of TRE were not seen in the lungs” value was below 6 h and the “time to which measurable levels of TRE were seen in the blood plasma” value was at most 4 h. The “time for which cAMP level was sustained” value on EP2 prostanoid receptor (10 μM, FIG. 3A) was “not exhibited”. At EP2 prostanoid receptor (compositions shown in FIG. 3, 8 hours time course), the “Max cAMP level (Fold)” value is listed as around 16 Fold. Moreover, the “Max cAMP level (Fold)” value on EP2 prostanoid receptor (compositions shown in FIG. 4, 5 μM, 8 hours time course) was around 14 Fold. In addition, the “change of potency with incubation time / release profile” value on EP2 prostanoid receptor is reported as “potency decreases with increasing incubation time”. For the same molecule, on EP2 prostanoid receptor (effect of nebulization study (FIG. 6), head prints (5 μM)), the “Max cAMP level (Fold)” value is around 15 Fold.

For hexadecyl-treprostinil [C16-TR], the “tolerability, body weights and organ weights” value in [3] is “no tolerability issues or significant changes (relative to PBS) in body weights and organ weights; also recorded: well tolerated”. For the same molecule, in data set [4], the “release kinetics of treprostinil over 24 hours” value is on record as “independent of dose”. The “adverse clinical signs in the dose-response study” value in data set [1] is listed as “adverse clinical signs were seen in only 1 dog”. Also, at EP2 prostanoid receptor, the “change of potency with incubation time / release profile” value was “increases with incubation time”. The “ranking of activity of the treprostinil compounds” value at EP2 prostanoid receptor (unformulated compounds, 10 μM and 5 μM, FIG. 21) is “C12-TR>C14-TR>5-nonanyl-TR>C16-TR”.

In general, solubility refers to the concentration that dissolves in the medium under given conditions. For the molecule `CCCCCCCCCCCCCCOC(=O)COc1cccc2c1C[C@H]1C[C@@H](O)[C@H](CC[C@@H](O)CCCCC)[C@H]1C2` [C14-TR, tetradecyl-treprostinil], the “polydispersity (% PD)” value in data set [5] is on record as “around 15 % PD”. Further, the solubility at 24 h in “physchem” and in the data set “physchem” (Solubility in HFA-134a with added ethanol) was below 1000 µg/mL each time. The “change of potency with incubation time / release profile” value on EP2 prostanoid receptor is given as “increases with incubation time”. For the same molecule, the “Rate of treprostinil alkyl ester conversion” value in data set [6] is given as 0.4 nmOL/h * g of protein.
